Laboratory results taken from paper PMC4714926 (ACS chemical biology, 2015).

Assays:
[1] = target: recombinant human FKBP12 (Homo sapiens, UniProt P62942); experiment: PAMPA partitioning with recombinant human FKBP12 on one side of the membrane; settings: compared to control wells
[2] = target: FKBP; settings: read-out: KD for FKBP; cited from earlier work
[3] = tested on: GFP-HIV protease fusion; experiment: GFP-HIV protease reporter assay in HEK293 T-REx cells; type: cell-based, human

Sequence of recombinant human FKBP12 (P62942 whole entry): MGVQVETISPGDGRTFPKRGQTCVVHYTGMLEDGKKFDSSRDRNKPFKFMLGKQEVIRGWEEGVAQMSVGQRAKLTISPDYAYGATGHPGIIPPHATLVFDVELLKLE

CC(C)CN(C[C@@H](O)[C@H](Cc1ccccc1)NC(=O)O[C@H]1CCOC1)S(=O)(=O)c1ccc(N)cc1 [amprenavir]
enhancement of partitioning by FKBP12 [1]: unaffected by FKBP12

C=CC[C@@H]1/C=C(\C)C[C@H](C)C[C@H](OC)[C@H]2O[C@@](O)(C(=O)C(=O)N3CCCC[C@H]3C(=O)O[C@H](/C(C)=C/[C@@H]3CC[C@@H](O)[C@H](OC)C3)[C@H](C)[C@@H](O)CC1=O)[C@H](C)C[C@@H]2OC [FK506]
Kd [2]: ~600 pM

COc1ccc(S(=O)(=O)N(CC(C)C)C[C@@H](O)[C@H](Cc2ccccc2)NC(=O)O[C@H]2CCOC2)cc1 [4-OMe-amprenavir]
rescue of cell viability and GFP fluorescence ([3]; 5 μM, after doxycycline induction, fluorescence and light microscopy): could rescue cell viability and increase fluorescence
dependence of GFP fluorescence on mCherry-FKBP12 over-expression ([3]; transient mCherry-FKBP12 over-expression, microscopy): did not show this dependence on mCherry-FKBP12 expression
